Reference: patent US10287301B2 (Achillion Pharmaceuticals, Inc., priority 2015, dated 2019)
pIC50: −log10 of the molar value. Like-named read-outs stand apart in the source and are kept apart here.

Molecular target: Human Factor D (Homo sapiens (Human), UniProt P00746)
Assay: Human Factor D Assay
Format: biochemical
In short: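 IC50 values derive from nonlinear regression of Factor D reaction rates against compound concentration. The enzyme, purified from human serum, is used at 80 nM final with a 5 min room-temperature compound preincubation in 50 mM Tris, 1M NaCl, pH 7.5, before 100 μM Z-L-Lys-SBzl plus 100 μM DTNB are added.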

[1] = Human Factor D 80 nM, substrate Z-L-Lys-SBzl, read-out: IC50

Chain of Human Factor D (P00746 26-253): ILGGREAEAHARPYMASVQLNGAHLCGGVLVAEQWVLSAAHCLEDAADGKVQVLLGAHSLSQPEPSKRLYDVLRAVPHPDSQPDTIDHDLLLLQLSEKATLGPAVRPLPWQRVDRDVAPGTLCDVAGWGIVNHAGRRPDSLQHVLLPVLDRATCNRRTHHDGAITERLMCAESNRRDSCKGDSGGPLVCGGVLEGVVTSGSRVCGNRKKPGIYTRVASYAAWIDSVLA

SMILES	pIC50 [1]	pIC50
CC(=O)c1cn(CC(=O)N2C[C@H](F)C[C@H]2C(=O)Nc2cccc(-c3ccccc3Cl)c2F)c2ccc(-c3cnc(C)nc3)cc12 [Compound 102, (2S,4R)-1-(2-(3-acetyl-5-(2-methylpyrimidin-5-yl)-1H-indol-1-yl)acetyl)-N-(2′-chloro-2-fluorobiphenyl-3-yl)-4-fluoropyrrolidine-2-carboxamide]	> 6.00	–
Cc1ncc(-c2ccc3c(c2)c(C(N)=O)nn3CC(=O)N2C[C@H](F)C[C@H]2C(=O)Nc2cccc(-c3ccccc3Cl)c2F)cn1 [Compound 103]	> 6.00	–
NC(=O)c1nn(CC(=O)N2C[C@H](F)C[C@H]2C(=O)Nc2cccc3c2CN(c2ccccn2)C3)c2ccc(-c3ccnnc3)cc12 [Compound 104, 1-(2-((2S,4R)-4-fluoro-2-(2-(pyridin-2-yl)isoindolin-4-ylcarbamoyl)pyrrolidin-1-yl)-2-oxoethyl)-5-(pyridazin-4-yl)-1H-indazole-3-carboxamide]	< 5.00	–
CC(=O)c1cn(CC(=O)N2C[C@H](F)C[C@H]2C(=O)Nc2cccc3c2CN(c2ccccn2)C3)c2ccc(-c3ccnnc3)cc12 [Compound 105, (2S,4R)-1-(2-(3-acetyl-5-(pyridazin-4-yl)-1H-indol-1-yl)acetyl)-4-fluoro-N-(2-(pyridin-2-yl)isoindolin-4-yl)pyrrolidine-2-carboxamide]	< 5.00	–
CC(=O)c1cn(CC(=O)N2C[C@H](F)C[C@H]2C(=O)NC2CCCc3nc(-c4ccc(F)cc4)sc32)c2ccc(-c3ccnnc3)cc12 (stereo partly drawn) [Compound 106, (2S,4R)-1-(2-(3-acetyl-5-(pyridazin-4-yl)-1H-indol-1-yl)acetyl)-4-fluoro-N-(2-(4-fluorophenyl)-4,5,6,7-tetrahydrobenzo[d]thiazol-7-yl)pyrrolidine-2-carboxamide]	< 5.00	–
NC(=O)c1nn(CC(=O)N2C[C@H](F)C[C@H]2C(=O)NC2CCCc3nc(-c4ccc(F)cc4)sc32)c2ccc(-c3ccnnc3)cc12 (stereo partly drawn) [Compound 107, 1-(2-((2S,4R)-4-fluoro-2-(2-(4-fluorophenyl)-4,5,6,7-tetrahydrobenzo[d]thiazol-7-ylcarbamoyl)pyrrolidin-1-yl)-2-oxoethyl)-5-(pyridazin-4-yl)-1H-indazole-3-carboxamide]	< 5.00	–
NC(=O)c1nn(CC(=O)N2C[C@H](F)C[C@H]2C(=O)Nc2ncc(Br)cn2)c2ccc(-c3ccnnc3)cc12 [Compound 109, 1-(2-((2S,4R)-2-(5-bromopyrimidin-2-ylcarbamoyl)-4-fluoropyrrolidin-1-yl)-2-oxoethyl)-5-(pyridazin-4-yl)-1H-indazole-3-carboxamide]	–	5.00 to 6.00
CC(=O)c1cn(CC(=O)N2C[C@H](F)C[C@H]2C(=O)Nc2ccc3ccccc3c2)c2ccc(-c3ccnnc3)cc12 [Compound 110, (2S,4R)-1-(2-(3-acetyl-5-(pyridazin-4-yl)-1H-indol-1-yl)acetyl)-4-fluoro-N-(naphthalen-2-yl)pyrrolidine-2-carboxamide]	< 5.00	–
NC(=O)c1nn(CC(=O)N2C[C@H](F)C[C@H]2C(=O)Nc2noc3cc(C(F)(F)F)ccc23)c2ccc(-c3ccnnc3)cc12 [Compound 112, 1-(2-((2S,4R)-4-fluoro-2-(6-(trifluoromethyl)benzo[d]isoxazol-3-ylcarbamoyl)pyrrolidin-1-yl)-2-oxoethyl)-5-(pyridazin-4-yl)-1H-indazole-3-carboxamide]	< 5.00	–
Cc1cc(NC(=O)[C@@H]2C[C@@H](F)CN2C(=O)Cn2nc(C(N)=O)c3cc(-c4ccnnc4)ccc32)n2nc(C(F)(F)F)nc2n1 [Compound 113, 1-(2-((2S,4R)-4-fluoro-2-(5-methyl-2-(trifluoromethyl)-[1,2,4]triazolo[1,5-a]pyrimidin-7-ylcarbamoyl)pyrrolidin-1-yl)-2-oxoethyl)-5-(pyridazin-4-yl)-1H-indazole-3-carboxamide]	< 5.00	–
NC(=O)c1nn(CC(=O)N2C[C@H](F)C[C@H]2C(=O)Nc2nnc(-c3ccccc3Cl)s2)c2ccc(-c3ccnnc3)cc12 [Compound 115, 1-(2-((2S,4R)-2-(5-(2-chlorophenyl)-1,3,4-thiadiazol-2-ylcarbamoyl)-4-fluoropyrrolidin-1-yl)-2-oxoethyl)-5-(pyridazin-4-yl)-1H-indazole-3-carboxamide]	< 5.00	–
CC(=O)c1cn(CC(=O)N2C[C@H](F)C[C@H]2C(=O)Nc2nnc(-c3ccc(Cl)c(Cl)c3)s2)c2ccc(-c3ccnnc3)cc12 [Compound 117, (2S,4R)-1-(2-(3-acetyl-5-(pyridazin-4-yl)-1H-indol-1-yl)acetyl)-N-(5-(3,4-dichlorophenyl)-1,3,4-thiadiazol-2-yl)-4-fluoropyrrolidine-2-carboxamide]	< 5.00	–
CC(=O)Nc1ncc(-c2ccc3c(c2)c(C(C)=O)cn3CC(=O)N2C[C@H](F)C[C@H]2C(=O)Nc2cccc(Br)n2)cn1 [Compound 118, (2S,4R)-1-(2-(5-(2-acetamidopyrimidin-5-yl)-3-acetyl-1H-indol-1-yl)acetyl)-N-(6-bromopyridin-2-yl)-4-fluoropyrrolidine-2-carboxamide]	> 6.00	–
CC(=O)c1cn(CC(=O)N2C[C@H](F)C[C@H]2C(=O)Nc2cccc(Br)n2)c2ccc(-c3cccc(Cl)c3)cc12 [Compound 119, (2S,4R)-1-(2-(3-acetyl-5-(3-chlorophenyl)-1H-indol-1-yl)acetyl)-N-(6-bromopyridin-2-yl)-4-fluoropyrrolidine-2-carboxamide]	> 6.00	–
CC(=O)c1cn(CC(=O)N2C[C@H](F)C[C@H]2C(=O)Nc2cccc(Br)n2)c2ccc(-c3ccc(C)nc3)cc12 [Compound 120, (2S,4R)-1-(2-(3-acetyl-5-(6-methylpyridin-3-yl)-1H-indol-1-yl)acetyl)-N-(6-bromopyridin-2-yl)-4-fluoropyrrolidine-2-carboxamide]	> 6.00	–
CC(=O)c1cn(CC(=O)N2C[C@H](F)C[C@H]2C(=O)Nc2cccc(-c3ccccc3Cl)c2F)c2ccc(-c3cnnc(C)c3)cc12 [Compound 121, (2S,4R)-1-(2-(3-acetyl-5-(6-methylpyridazin-4-yl)-1H-indol-1-yl)acetyl)-N-(2′-chloro-2-fluorobiphenyl-3-yl)-4-fluoropyrrolidine-2-carboxamide]	> 6.00	–
COc1cc(C)cc2c1OCCC2NC(=O)[C@@H]1C[C@@H](F)CN1C(=O)Cn1nc(C(N)=O)c2cc(-c3ccnnc3)ccc21 (stereo partly drawn) [Compound 122, 1-(2-((2S,4R)-4-fluoro-2-(8-methoxy-6-methylchroman-4-ylcarbamoyl)pyrrolidin-1-yl)-2-oxoethyl)-5-(pyridazin-4-yl)-1H-indazole-3-carboxamide]	< 5.00	–
COc1cc(C)cc2c1OCCC2NC(=O)[C@@H]1C[C@@H](F)CN1C(=O)Cn1cc(C(C)=O)c2cc(-c3ccnnc3)ccc21 (stereo partly drawn) [Compound 123, (2S,4R)-1-(2-(3-acetyl-5-(pyridazin-4-yl)-1H-indol-1-yl)acetyl)-4-fluoro-N-(8-methoxy-6-methylchroman-4-yl)pyrrolidine-2-carboxamide]	< 5.00	–
CC(=O)c1cn(CC(=O)N2C[C@H](F)C[C@H]2C(=O)NC2CCCN(c3cc(C)ccc3F)C2=O)c2ccc(-c3ccnnc3)cc12 (stereo partly drawn) [Compound 125, (2S,4R)-1-(2-(3-acetyl-5-(pyridazin-4-yl)-1H-indol-1-yl)acetyl)-4-fluoro-N-(1-(2-fluoro-5-methylphenyl)-2-oxopiperidin-3-yl)pyrrolidine-2-carboxamide]	–	5.00 to 6.00
CC(=O)c1cn(CC(=O)N2C[C@H](F)C[C@H]2C(=O)Nc2cccc(Cl)c2C(F)(F)F)c2ccc(-c3ccnnc3)cc12 [Compound 126, (2S,4R)-1-(2-(3-acetyl-5-(pyridazin-4-yl)-1H-indol-1-yl)acetyl)-N-(3-chloro-2-(trifluoromethyl)phenyl)-4-fluoropyrrolidine-2-carboxamide]	< 5.00	–
CC(=O)c1cn(CC(=O)N2C[C@H](F)C[C@H]2C(=O)Nc2cncc(Br)n2)c2ccc(-c3ccnnc3)cc12 [Compound 127, (2S,4R)-1-(2-(3-acetyl-5-(pyridazin-4-yl)-1H-indol-1-yl)acetyl)-N-(6-bromopyrazin-2-yl)-4-fluoropyrrolidine-2-carboxamide]	> 6.00	–
NC(=O)c1nn(CC(=O)N2C[C@H](F)C[C@H]2C(=O)Nc2cncc(Br)n2)c2ccc(-c3ccnnc3)cc12 [Compound 128, 1-(2-((2S,4R)-2-(6-bromopyrazin-2-ylcarbamoyl)-4-fluoropyrrolidin-1-yl)-2-oxoethyl)-5-(pyridazin-4-yl)-1H-indazole-3-carboxamide]	> 6.00	–
NC(=O)c1nn(CC(=O)N2C[C@H](F)C[C@H]2C(=O)Nc2ccc3ccccc3c2)c2ccc(-c3ccnnc3)cc12 [Compound 131, 1-(2-((2S,4R)-4-fluoro-2-(naphthalen-2-ylcarbamoyl)pyrrolidin-1-yl)-2-oxoethyl)-5-(pyridazin-4-yl)-1H-indazole-3-carboxamide]	< 5.00	–
CC(=O)c1cn(CC(=O)N2[C@@H]3C[C@@H]3C[C@H]2C(=O)Nc2cccc(Br)n2)c2ccc(-c3cnc(C)nc3)cc12 [Compound 132, (1R,3S,5R)-2-(2-(3-acetyl-5-(2-methylpyrimidin-5-yl)-1H-indol-1-yl)acetyl)-N-(6-bromopyridin-2-yl)-2-azabicyclo[3.1.0] hexane-3-carboxamide]	> 6.00	–
CC(=O)c1cn(CC(=O)N2[C@@H]3C[C@@H]3C[C@H]2C(=O)Nc2cccc(-c3ccccc3Cl)c2F)c2ccc(-c3cnc(C)nc3)cc12 [Compound 133, (1R,3S,5R)-2-(2-(3-acetyl-5-(2-methylpyrimidin-5-yl)-1H-indol-1-yl)acetyl)-N-(2′-chloro-2-fluorobiphenyl-3-yl)-2-azabicyclo[3.1.0] hexane-3-carboxamide]	> 6.00	–
CC(=O)c1cn(CC(=O)N2[C@@H]3C[C@@H]3C[C@H]2C(=O)NCc2cccc(Cl)c2F)c2ccc(-c3cnc(C)nc3)cc12 [Compound 134, (1R,3S,5R)-2-(2-(3-acetyl-5-(2-methylpyrimidin-5-yl)-1H-indol-1-yl)acetyl)-N-(3-chloro-2-fluorobenzyl)-2-azabicyclo[3.1.0] hexane-3-carboxamide]	> 6.00	–
